Assay [1] relates to mouse hepatoma cells (Hepa1-6) xenograft. Put plainly: subcutaneous tumorigenicity assay, lenvatinib plus anti-PD-1 monoclonal antibody (Example 2). Format: in vivo. The settings on record: for growth of hepatoma xenograft: oral gavage, 3 weeks.
Excerpt: Detection of the effects of different doses of lenvatinib plus anti-PD-1 monoclonal antibody on hepatoma xenograft by subcutaneous tumorigenicity assay of immunocompetent C57B/L mice.
(1) Separately, 1×10^6 mouse hepatoma cells (Hepa1-6) were implanted into the subcutaneous stratum of the armpits of 24 C57B/L mice aged 3-4 weeks. The mice were randomized into six groups: The mice were randomized into six groups: a blank control group, an anti-PD-1 monoclonal antibody alone group, a low-dose lenvatinib group, a high-dose lenvatinib group, a low-dose lenvatinib+anti-PD-1 monoclonal antibody group, and a high-dose lenvatinib+anti-PD-1 monoclonal antibody group.
(2) When the size of the subcutaneous tumor reached 100-200 mm^3: each mouse of the anti-PD-1 monoclonal antibody alone group was intraperitoneally administered with 200 μg of anti-PD-1 monoclonal antibody every three days; each mouse of the low-dose lenvatinib group was orally administered with 10 mg/kg/day lenvatinib by gastric gavage once a day; each mouse of the high-dose lenvatinib group was orally administered with 30 mg/kg/day lenvatinib by gastric gavage once a day; each mouse of the low-dose lenvatinib group+anti-PD-1 monoclonal antibody was orally administered with 10 mg/kg/day lenvatinib by gastric gavage once a day and intraperitoneally administered with 200 μg of anti-PD-1 monoclonal antibody every three days; and each mouse of the high-dose lenvatinib group+anti-PD-1 monoclonal antibody was orally administered with 30 mg/kg/day lenvatinib by gastric gavage once a day and intraperitoneally administered with 200 μg of anti-PD-1 monoclonal antibody every three days.
(4) After 3 weeks, the mice were sacrificed, and data statistics and reduction were conducted.
For assay [2] the test system is unchanged. Put plainly: subcutaneous tumorigenicity assay, tumor size (Example 1). Format: in vivo. The method, then: 3. Detection of the effects of different doses of lenvatinib on hepatoma xenograft by subcutaneous tumorigenicity assay of immunocompetent C57B/L mice. (1) Separately, 1×10^6 mouse hepatoma cells (Hepa1-6) were implanted into the subcutaneous stratum of the armpits of 20 […] mice aged 3-4 weeks. The mice were randomized into four groups: a blank control group, a 3 mg/kg/day lenvatinib group, a 10 mg/kg/day lenvatinib group, and a 30 mg/kg/day lenvatinib group. (2) When the size of the subcutaneous tumor reached 100-200 mm^3: each mouse of the 3 mg/kg/day lenvatinib group was orally administered with 3 mg/kg/day lenvatinib by gastric gavage once a day; each mouse of the 10 mg/kg/day lenvatinib group was orally administered with 10 mg/kg/day lenvatinib by gastric gavage once a day; and each mouse of the 30 mg/kg/day lenvatinib group was orally administered with 30 mg/kg/day lenvatinib by gastric gavage once a day. According to the existing literature, 30 mg/kg was a routine dose of lenvatinib (Selleck) for laboratory mice. (3) The tumor size was measured every two days, and the difference in tumor size was compared among groups.

For assay [3], the system named is CD31, NG2, CD8 in Hepa1-6 tumor tissue. Kind of assay: immunohistochemistry of vascular markers and CD8-positive T cell infiltration in tumor tissue (Example 1). Format: in vivo, mouse. The method, then: (§1) (1) Separately, 1×10^6 mouse hepatoma cells (Hepa1-6) were implanted into the subcutaneous stratum of the armpits of 20 […] mice aged 3-4 weeks. The mice were randomized into four groups: a blank control group, a 3 mg/kg/day lenvatinib group, a 10 mg/kg/day lenvatinib group, and a 30 mg/kg/day lenvatinib group. (2) When the size of the subcutaneous tumor reached 100-200 mm^3: each mouse of the 3 mg/kg/day lenvatinib group was orally administered with 3 mg/kg/day lenvatinib by gastric gavage once a day; each mouse of the 10 mg/kg/day lenvatinib group was orally administered with 10 mg/kg/day lenvatinib by gastric gavage once a day; and each mouse of the 30 mg/kg/day lenvatinib group was orally administered with 30 mg/kg/day lenvatinib by gastric gavage once a day. According to the existing literature, 30 mg/kg was a routine dose of lenvatinib (Selleck) for laboratory mice. (4) After 3 weeks, the mice were sacrificed, tumor tissues were resected, a part of fresh tumor tissue was separated and ground into a single cell suspension, and the proportion of positive cells labeled with CD45 and CD8 was detected by flow cytometry; meanwhile, the other part of tumor tissue was fixed and embedded, and vascular markers (CD31, α-SMA, and VEGFR2) and CD8-positive T cell infiltration were detected by immunohistochemistry.

In assay [4] the test system is CD8-positive T cells in Hepa1-6 tumor tissue. Kind of assay: flow cytometry of CD45/CD8-positive cells in resected tumor tissue (Example 1). It is filed as in vivo, mouse. The settings on record: 10 mg/kg/day, after 3 weeks. The method, then: as §1
On the technique in general: In flow cytometry, cells or beads pass a laser one at a time.

Molecules are shown by their SMILES.

`COc1cc2nccc(Oc3ccc(NC(=O)NC4CC4)c(Cl)c3)c2cc1C(N)=O` [lenvatinib]: the “difference in tumor growth between low-dose and high-dose groups” value in assay [1] (10 vs 30 mg/kg/day lenvatinib alone) is listed as “no significant difference”. Moreover, the “growth of hepatoma xenograft” value in assay [1] (high-dose lenvatinib 30 mg/kg/day) is reported as “inhibit the growth of hepatoma xenograft”. The “growth of hepatoma xenograft” value in assay [1] (low-dose lenvatinib 10 mg/kg/day) is listed as “inhibit the growth of hepatoma xenograft”. The “difference in tumor growth among the three dose groups” value in assay [2] (3 vs 10 vs 30 mg/kg/day lenvatinib) is listed as “no significant difference”. For the same compound, the “growth of hepatoma xenograft (tumor size)” value in assay [2] (all three doses 3, 10, 30 mg/kg/day, oral gavage once a day, 3 weeks) was “inhibit the growth of hepatoma xenograft”. For the same compound, in assay [3] (10 mg/kg/day), the “infiltrating CD8-positive T cells in the tumor tissue” value is recorded as “significantly increased”. Further, in assay [3] (10 mg/kg/day only), the “expression of peripheral cell marker molecule NG2” value is “upregulation” and the “vascular normalization in tumor tissue” value was “significantly improve vascular normalization”. For the same compound, in assay [3] (all three doses 3, 10, 30 mg/kg/day), the “microvessel density (CD31) in hepatoma tissue” value was “significantly reduce”. Besides, the “percentage of CD8-positive T cells in the tumor tissue” value in assay [4] is given as “significantly increased”.

The record behind these values is patent US20230201342A1, “USE OF LENVATINIB PLUS ANTI-PD-1 MONOCLONAL ANTIBODY IN PREPARATION OF ANTI-HEPATOMA DRUG” (Guangzhou X Cell Therapy Biomedical Tech Co., Ltd, priority 2021, published 2023).
